{"source": "patent US20100179188A1", "about": "“NITROXIDE RADICAL AS TREATMENT FOR NEURODEGENERATION” (Office of Technology Transfer, NIH, priority 2007, published 2010)", "key": {"IRP1": {"tested_on": "IRP1", "assay": "Western blot of IRP1 protein in brain-region lysates of IRP2−/− mice", "format": "in vivo", "details": "cerebellum, brain-stem and forebrain of IRP2−/− mice, Tempo1 diet vs control diet", "procedure": "Diet: The mice were weaned 3-4 weeks after their birth. Immediately after weaning, mice were maintained on either a Tempo1-supplemented or control diet. In the Tempo1-supplemented diet, powdered Tempo1 was uniformly mixed with bacon-flavored mouse chow by a “cold press” technique (Bio-Serv, Frenchtown, N.J., USA) at a concentration of 10 mg/g of food. Bacon-flavored chow without Tempo1 was used as the control diet.\nTissue and lysate preparation: Animals were euthanized and tissues were frozen in liquid nitrogen immediately after harvesting, and stored at −80° C. under argon. Experiments were performed on tissues that were pulverized in liquid N2-cooled mortars in an anaerobic chamber, and then lysed in lysis buffer that was deaerated by cyclic freezethaw and air-removal with argon. […]\nLysates made from various brain regions of IRP2−/− mice that were maintained on a control diet or on a Tempo1-supplemented diet were analyzed for IRE binding activity of IRP1 and for TfR1, IRP1, and actin protein levels by gel-shift assay and Western blot. […] FIG. 3b is a quantification of the results as intensity of the bands relative to the control, represented here as 100%. Quantification was performed with the IQMac (IRP1 activity) or NIH Image (protein levels) program. Error bars represent the standard deviation calculated from the results of two different sets of animals."}, "purified holo-IRP1": {"target": "T1, purified holo-IRP1 (Homo sapiens, UniProt P21399)", "T1 sequence (P21399 1-889)": "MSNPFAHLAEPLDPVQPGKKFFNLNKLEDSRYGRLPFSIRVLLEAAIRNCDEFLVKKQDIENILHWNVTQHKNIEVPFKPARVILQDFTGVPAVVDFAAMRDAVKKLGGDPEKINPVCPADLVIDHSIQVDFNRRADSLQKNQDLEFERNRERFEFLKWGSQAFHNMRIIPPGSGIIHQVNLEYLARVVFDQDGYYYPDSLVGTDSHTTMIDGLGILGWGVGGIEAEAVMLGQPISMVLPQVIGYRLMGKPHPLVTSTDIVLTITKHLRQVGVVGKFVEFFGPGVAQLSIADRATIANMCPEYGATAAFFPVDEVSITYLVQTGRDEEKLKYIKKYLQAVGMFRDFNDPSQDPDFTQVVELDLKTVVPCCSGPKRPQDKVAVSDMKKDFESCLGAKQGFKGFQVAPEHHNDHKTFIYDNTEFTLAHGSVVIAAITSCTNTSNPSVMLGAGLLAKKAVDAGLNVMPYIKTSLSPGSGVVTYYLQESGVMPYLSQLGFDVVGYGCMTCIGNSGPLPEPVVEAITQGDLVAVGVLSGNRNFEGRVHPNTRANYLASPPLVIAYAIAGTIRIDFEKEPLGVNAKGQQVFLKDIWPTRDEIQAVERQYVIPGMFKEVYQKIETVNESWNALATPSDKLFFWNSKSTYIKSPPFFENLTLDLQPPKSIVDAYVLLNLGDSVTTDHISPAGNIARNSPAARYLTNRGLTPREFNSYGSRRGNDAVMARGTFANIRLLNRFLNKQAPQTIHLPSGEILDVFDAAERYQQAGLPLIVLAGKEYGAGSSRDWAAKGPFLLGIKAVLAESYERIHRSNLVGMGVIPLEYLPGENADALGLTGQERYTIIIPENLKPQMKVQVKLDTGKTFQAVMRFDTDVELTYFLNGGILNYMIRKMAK", "assay": "Aconitase activity of purified holo-IRP1, coupled solution assay", "format": "biochemical", "details": "purified protein, room air up to 2 h or 3 h at 37° C., vs control samples"}}, "note": "Entries after “also recorded” stand apart in the source; their conditions may differ."}
{"smiles": "CC1(C)CC(O)CC(C)(C)N1[O]", "note": "[Tempo1]", "values": [{"measurement": "IRP1 protein levels", "setting": "IRP1", "result": "did not significantly change"}, {"measurement": "loss of aconitase activity", "setting": "purified holo-IRP1", "result": "comparable losses; also recorded: did not enhance"}]}
